Data on one substance can be found in patent US20200190592A1, “PME-1 AS A BIOMARKER TO PREDICT AND DIAGNOSE AN INCREASED RISK OF ENDOMETRIAL CANCER AND GENE SILENCING OF PME-1 TO INHIBIT EPITHELIAL TO MESENCHYMAL TRANSITION” (Medical Diagnostic Laboratories, L.L.C., priority 2018, published 2020).

“Also recorded” adds a separate entry of the source.

Type in all cases: cell-based, human
Data set [1] has as its system RL95-2 cells. The experiment in a line: BrDU incorporation assay. As to conditions: compared to scrambled shRNA control set to 100%. The method, then:
To confirm our foci formation data that altering PME-1 levels in endometrial cancer cells affect their rate of cell proliferation, we conducted a BrDU incorporation assay. BrDU is incorporated into newly synthesized DNA and can be detected with antibodies; thus, increased BrDU incorporation correlates with an increased level of proliferation.
The BrDU Incorporation assay was completed with RL95-2 cell lines in media supplemented with 2.5 μg/ml puromycin. Cells were plated at 0.5*10^4 cells per well into a 96 well dish with 0% FBS and allowed to settle for 24 hours. The assay was completed as per kit instructions (Roche, Cell Proliferation ELISA, BrdU colorimetric cat. #11647229001). Briefly, 10 uM BrdU was added to the cells, 24 hours later cells were fixed and denatured with FixDenat from the kit and allowed to incubate with anti-BrdU antibody for up to two hours. Following the incubation and addition of the kit substrate, absorbances were read using FluoStar Galaxy.

Data set [2] relates to RL95-2 cells. In words: Colony forming / invasive growth assay in Matrigel. As to conditions: RL95-2 in Matrigel. The method, then: To determine if PME-1 contributes to the more invasive and metastatic phenotypes, we performed a colony forming assay in matrigel.
The 3D On Top Matrigel Assay was completed in 24 well dishes as described previously {Lee, 2007 #1577}. Briefly, the bottoms of 24 well dishes were coated with 50 μl BD Matrigel Basement Matrix Phenol Red Free (BD Biosciences cat. #356237) and allowed to solidify at 37° C. 10^5 cells were suspended in 250 μl chilled medium containing either 10 ng/ml of TGF-b or vehicle and allowed to settle at 37° C. for 30 minutes. Chilled medium containing 10% of Matrigel was added by pipetting gently down the sidewall of the well and incubated at 37° C. for ten days changing top medium every second day. Colony counts were performed on the tenth day, averages were taken from three fields of view using a 10× objective. Experiment was repeated three times.

A further data set deals with SFRP1. In words: qRT-PCR of SFRP1 expression in RL95-2 cells. Particulars: RL95-2, normalized to 18S. As to the method: Using RL95-2 endometrial cancer cells, we overexpressed PME-1 (FIG. 21A) or depleted PME-1 with shRNA (FIG. 21B) and confirmed that PME-1 was appropriately expressed.
Total RNA was extracted with Qiagen RNAEasy kit from RL95-2 cells. cDNA was synthesized using 500 ng-1 μg of RNA and SuperScript VILO c-DNA mix (Life Technologies). Taqman probes and PCR-mix were purchased from Life Technologies. All samples were run in triplicates. Results are representative of three independent experiments in which genes of interest were normalized to the house-keeping gene, 18S or GAPDH, where fold-change was calculated using the ddCt method.

A further data set relates to PME-1. The experiment in a line: Western blot of PME-1 protein in RL95-2 cells. Particulars: GAPDH loading control, listed as shRNA #2. The text has this: We prepared RL95-2 cell lines expressing empty vector (control), over-expressing PME-1 (+PME-1), or expressing shRNA against PPME1, the gene that codes for PME-1 protein (−PME-1). Using these cells, we confirmed the appropriate level of PME-1 via real-time RT-PCR (data not shown) and Western blot analysis (FIG. 8). GAPDH was used as a loading control.
We also prepared two different shRNAs targeted against PME-1.
Lentivirus was produced in HEK293T cell lines with pLKO shRN vectors (Thermo Scientific, cat. no. RHS4533; Waltham, Mass.) and pCDH-CuO-GFP-Puro vectors (System Biosciences, Inc., cat. no. QM513B-1; Mountain View, Calif.) with pPACKH1 packaging plasmid (System Biosciences, Inc., cat, no. LV050A-1). shRNA sequences are in the Table 2. Lentivirus was collected and concentrated with Peg-IT concentrating solution (System Biosciences, Inc.). 5×10^6 ifu/ml lentivirus was added to cell cultures with growth media and 8 μg/ml PolyBrene (Sigma Aldrich). Media was changed to full growth media after 24 hrs and to selection media containing antibiotic after 48 hrs (5 μg/ml puromycin) (Invivogen) for 10 days.
15 μg of protein was used for western analysis. […]
Background: Immunoblotting shows a protein as a band on a membrane.

Another data set concerns β-catenin. In words: Western analysis of β-catenin in RL95-2 cells. An excerpt: We performed Western blot analysis in RL95-2 cells that were expressing empty vector (Control), over-expressing PME-1 (+PME-1) or expressing shRNA against PME-1 (−PME-1) to examine the protein stability of β-catenin (FIG. 19A). We observed a decrease in total β-catenin protein in cells that were over-expressing PME-1. This observation is correlated with the predicted ubiquitylation of β-catenin and its degradation. Conversely, a depletion of PME-1 led to stabilization of total β-catenin (FIG. 19A).
In another series of study, we performed a similar assay in which cells were treated with 10 μM MG-132 prior to protein extraction. MG-132 is a proteasome inhibitor and therefore allows for the accumulation of phosphorylated β-catenin, which is normally quickly degraded, to be detected by western analysis.
15 μg of protein was used for western analysis. PME-1 antibody (Santa Cruz) and COXIV (Cell Signaling Technologies) were used for detection of proteins and the blots were developed using chemiluminescence (Pierce ECL Western Blotting Substrate—Thermo Scientific) on the GE ImageQuant LAS 4000. For analysis of Akt, ERK, and β-catenin signaling in tissue culture, western analyses were completed as follows. RL95-2 cells stably infected with lentivirus expressing constructs were selected with puromycin (Invivogen). […]

Take “shPPME1 no. 2: shRNA targeting PPME1, SEQ ID NO: 2: GCAGCGATTATTAGTAGAGTT, bp 289-309; used for all subsequent experiments (guide GCAGCGATTATTAGTAGAGTT; listed as Homo sapiens)”: the “decrease in BrDU incorporation” value with RL95-2 cells [1] turned out to be 40%. In the data set with RL95-2 cells [2] (10 days, vs control cells), the “decrease in colony formation” value amounted to 50%. Besides, the “colonies number and size” value in the data set on RL95-2 cells [2] (−TGF-β, compared to control cells) was “fewer and smaller colonies”. Moreover, the SFRP1 expression entry is “significantly increased” in the data set on SFRP1 and “significant increase” with SFRP1 (listed as shRNA (SEQ ID NO: 2)). In the data set with PME-1, the “PME-1 levels via Western blot analysis” value is recorded as “significantly decreased; also recorded: best depletion”. Further, the “total β-catenin” value in the data set with β-catenin (absence of MG-132) is given as “stabilization”. The “phosphorylated β-catenin” value in the data set on β-catenin (cells treated with 10 μM MG-132, compared to control cells) is reported as “did not lead to an increase”.
